The target in experiment [1] is T1, PDL2:IMPα1 complex (Homo sapiens, UniProt P52292).
T1 construct: with concentrations ranging from 10 μM to 0.00975 μM; endogenous in cells; host or cells: MDA-MB-231
Briefly: Binding specificity assay (DUOLINK PDL2 and IMPα1). In kind it is cell-based. Conditions: MDA-MB-231, any concentration (10 μM to 0.00975 μM). The method, then: MDA-MB-231 cells were treated with DL-2; with concentrations ranging from 10 μM to 0.00975 μM. Cover slips were mounted on glass microscope slides with Prolong nucleus glass Antifade reagent (Life Technologies). PDL2 and IMPα1 DUOLINK Digital images were analyzed using ImageJ software (ImageJ, NIH, Bethesda, MD, USA) and graphs represent the mean DOT Fluorescent Intensity in the nucleus or the cytoplasm compartments with significant differences calculated as per Kruskal-Wallis one-way ANOVA.

Experiment [2] concerns the target T2, PDL1-PTM1 and IMPα1 (Homo sapiens, UniProt P52292).
T2 construct: endogenous in cells; host or cells: MDA-MB-231
Briefly: Importin-α pathway screening assay (PCC co-localisation). The format is cell-based. How it is done: MDA-MB-231 cells were treated with DL-2 for 4 to 96 hours or control peptide scramble and were permeabilized probed a mouse anti-IMPα1, rabbit anti-PDL1 and visualized with a donkey anti-rabbit secondary antibody conjugated to Alexa Fluor 647 or a donkey anti-mouse secondary antibody conjugated to Alexa Fluor 568. Cover slips were mounted on glass microscope slides with Prolong nucleus glass Antifade reagent (Life Technologies). PDL1 and IMPα1 digital images were analyzed using ImageJ software (ImageJ, NIH, Bethesda, MD, USA) to determine the mean fluorescent intensity (mean FI). Graphs represent the mean FI of IMPα1. Graphs also depict the PCC of PDL1/IMPα1 using ImageJ software with automatic thresholding and manual selection of regions of interest (ROIs) specific for cell nuclei to calculate the Pearson's co-efficient correlation (PCC) for each pair of antibodies. PCC values range from: −1=inverse of co-localization.

Experiment [3] relates to MDA-MB-231 cells. Briefly: WST-1 cell proliferation assay, MDA-MB-231. In kind it is cell-based, human. As to conditions: for inhibition of proliferation: MDA-MB-231, WST-1, 72 hours. How it is done: MDA-MB-231 cells were seeded at 4×10^3 cells/well into a 96-well flat bottom tissue culture plate in a final volume of 100 ul and left to adhere for 24 hours at 37° C. and 5% CO2. Cells were then treated with inhibitors for 72 hours at a final concentration of 200, 100, 50, 25, 12.5 or 6.25 μM. Following inhibition, media was removed and replaced with 100 μL/well of WST-1 cell proliferation reagent (Sigma-Aldrich, Cat# 11644807001) at 1:10 final dilution. Absorbance was recorded at 450 nm at 1, 2, 3, and 4 hour incubation periods using a microplate spectrophotometer (with 30 sec mix time). Data represent a single independent experiment performed in triplicate, results are graphed as mean +/− standard error (SE).
(A) CT26, 4T1 or MDA-MB-231 Cells were treated with inhibitors for 72 hours. Following inhibition, media was removed and replaced with WST-1 cell proliferation reagent. Absorbance was recorded at 450 nm after 1 hour. Data represent a single independent experiment performed in triplicate. Results are graphed as mean +/− standard error (SE). B) MDA-MB-231 or CT26 cancer cells were treated with vehicle control, DL-2-Batch 1 (original stock), DL-2-Batch 2 (current stock), DL-2-TBAB or linear PDL1. Cells were permeabilised and were probed with the DUOLINK ligation assay. Cover slips were mounted on glass microscope slides with ProLong nucblue glass Antifade reagent (Life Technologies). PDL1Ac and IMPα1 DUOLINK Digital images were analysed using ImageJ software (ImageJ, NIH, Bethesda, MD, USA) and graphs represent the mean DOT Fluorescent Intensity in the nucleus or the cytoplasm compartments with significant differences calculated as per one-way ANOVA comparison. (C) MDA-MB-231 or CT26 cancer cells were treated with vehicle control, DL-2-Batch 1 (Original stock), DL-2-Batch 2 (current stock), DL-2-TBAB or linear PDL1. Cells were permeabilised and were probed with the DUOLINK ligation assay. Cover slips were mounted on glass microscope slides with ProLong nucblue glass Antifade reagent (Life Technologies). PDL1-unmodified and IMPα1 DUOLINK digital images were analysed using ImageJ software (ImageJ, NIH, Bethesda, MD, USA) and graphs represent the mean DOT fluorescent intensity in the nucleus or the cytoplasm compartments with significant differences calculated as per one-way ANOVA comparison.
4T1, CT26 or MDA-MB-231 cancer cell lines were treated with DL-2 or DL-2-D bicyclic inhibitors for 72 hours. Following inhibition, media was removed and replaced with WST-1 cell proliferation reagent. Absorbance was recorded at 450 nm after 1 hour. Data represent a single independent experiment performed in triplicate; results are graphed as mean +/− standard error (SE).
Cells weretreated with inhibitors for 48 hours. Following inhibition, media was removed and replaced with WST-1 cell proliferation reagent. Absorbance was recorded at 450 nm after 1 hour.

From patent US20240117005A1, “NOVEL BICYCLIC PEPTIDES” (THE COUNCIL OF THE QUEENSLAND INSTITUTE OF MEDICAL RESEARCH, priority 2021, published 2024) come the findings set out here.

The structures appear in SMILES notation. Entries after “also recorded” stand apart in the source; their conditions may differ.

Turning to `CCCCCCCCCCCCCC(=O)NC(C)C(=O)NC1CSCc2cc3cc(c2)CSC[C@H](NC(=O)[C@H](Cc2ccccc2)NC(=O)[C@H](C(C)CC)NC(=O)[C@H](Cc2ccccc2)NC(=O)[C@H]([C@@H](C)O)NC(=O)C(CC(C)C)NC1=O)C(=O)N[C@@H](CCCNC(C)=N)C(=O)N[C@@H](CC(C)C)C(=O)N[C@@H](CCCNC(=N)N)C(=O)N[C@@H](CCCCN)C(=O)NCC(=O)N[C@@H](CCCNC(=N)N)C(=O)NC(C(=O)N[C@@H](CCSC)C(=O)NC(CCSC)C(=O)N[C@@H](CC(=O)O)C(=O)NC(C(=O)N[C@@H](CCCCN)C(=O)NC(CCCCN)C(=O)O)C(C)C)CSC3` (mixture of isomers) [DL-2], the “PDL2:IMPα1 complex (DUOLINK)” value in experiment [1] is reported as “no significant effect”. Further, the “nuclear expression of IMPα1” value in experiment [2] (MDA-MB-231) was “No significant effect”. Further, in experiment [2] (MDA-MB-231, up to 96 hours), the “PCC or degree of co-localization of PDL1-PTM1 and IMPα1” value is “significantly impair”. Also, the figures for the inhibition of proliferation result in experiment [3] and in experiment [3] (listed as DL-2-TBMB) were “able to inhibit proliferation; also recorded: significantly inhibit the proliferation” and “able to effectively inhibit the proliferation”, respectively. Also, the “potency of proliferation inhibition relative to DL-1” value in experiment [3] (MDA-MB-231, higher potency than DL-1) is recorded as 2-3 fold.
